Source: patent publication US9994587B2, “HIV protease inhibitors” (priority 2014, dated 2018)

The molecules below were run against T1, wildtype HIV-1 protease (Human immunodeficiency virus type 1 group M subtype B, UniProt P04585) (assay: Assay for inhibition of microbial expressed HIV protease (Pepcleav)). Conditions: wild type HIV-1 protease 20 pM, peptide substrate 400 micromolar, pH 5.5; mean of at least two independent experiments.
T1 construct: preincubated with the HIV-1 protease (wild type) enzyme in assay buffer; made in house; host or cells: Escherichia coli
Type: biochemical
Description: Assay for Inhibition of Microbial Expressed HIV Protease (“Pepcleav”)
Studies of the inhibition of the wildtype HIV-1 protease (which was expressed in Escherichia coli) were carried out with a peptide substrate [Val-Ser-Gln-Asn-(βnaphtyl)Ala-Pro-Ile-Val (SEQ ID NO 1)]. The inhibitor was first preincubated with the HIV-1 protease (wild type) enzyme in assay buffer (50 mM sodium acetate, pH 5.5, 100 mM NaCl, and 0.1% BSA) for 30 minutes at room temperature. Substrate was added to 400 micromolar in a total volume of 20 microliters containing 20 picomolar HIV-1 protease (final) and the reaction is incubated for 1 hour at 30° C. The reaction was quenched with the addition of formic acid and indinavir to 0.012% and 150 nM final concentrations, respectively. Product formation was determined after separation of product and substrate on a Zorbax Eclipse XDB-C18 column connected to an API 4000 mass spectrometer (Applied Biosystems) with multiple reaction monitoring (transitions were 644.5/428.9 and 615.4/422.2 (M1/M3) for product and indinavir respectively). The extent of inhibition of the reaction was determined from the peak area of the products.

Row | Compound | IC50
1 | COC(=O)N[C@H](C(=O)Nc1cccnc1CC[C@@H]1CNC[C@@H](CSc2ncccc2Cl)O1)C(c1ccccc1)c1ccccc1 [Example 80, N-(2-{2-[(2R,6S)-6-{[(3-chloropyridin-2-yl)sulfanyl]methyl}morpholin-2-yl]ethyl}pyridin-3-yl)-Nα-(methoxycarbonyl)-β-phenyl-L-phenylalaninamide] | 58 nM
2 | COC(=O)N[C@H](C(=O)Nc1ccccc1CC[C@@H]1CNC[C@@H](CSc2cccc(Br)c2)O1)C(c1ccccc1)c1ccccc1 [Example 20, methyl N-[(1S)-1-benzhydryl-2-[[2-[2-[(2R,6S)-6-[(3-bromophenyl)sulfanylmethyl]morpholin-2-yl]ethyl]phenyl]amino]-2-oxo-ethyl]carbamate] | 2.9 nM
3 | COC(=O)N[C@H](C(=O)Nc1ccccc1OC[C@@H]1CNC[C@@H](CSc2ccc(Cl)cc2)O1)C(c1ccccc1)c1ccccc1 [Example 58, methyl N-[(1S)-1-benzhydryl-2-[[2-[[(2S,6S)-6-[(4-chlorophenyl)sulfanylmethyl]morpholin-2-yl]methoxy]phenyl]amino]-2-oxo-ethyl]carbamate] | 8.1 nM
4 | N[C@H](C(=O)Nc1cncc(F)c1CC[C@@H]1CNCC2(CCCC2)O1)C(c1ccccc1)c1ccccc1 [Example 131, N-(5-fluoro-4-{2-[(7R)-6-oxa-9-azaspiro[4.5]dec-7-yl]ethyl}pyridin-3-yl)-β-phenyl-L-phenylalaninamide] | 300 nM
5 | COC(=O)N[C@H](C(=O)Nc1ccccc1CC[C@@H]1CNC[C@@H](CSc2nnc(Cc3csc(C)n3)o2)O1)C(c1ccccc1)c1ccccc1 [Example 32, methyl N-[(1S)-1-benzhydryl-2-[[2-[2-[(2R,6S)-6-[[5-[(2-methylthiazol-4-yl)methyl]-1,3,4-oxadiazol-2-yl]sulfanylmethyl]morpholin-2-yl]ethyl]phenyl]amino]-2-oxo-ethyl]carbamate] | 8 nM
6 | COC(=O)N[C@H](C(=O)Nc1ccccc1CC[C@@H]1CNC[C@@H](CSc2ccc(Cl)cc2)O1)[C@@H](c1ccccc1)c1ccnc2ccccc12 [Example 68, methyl[(2S,3S)-1-[(2-{2-[(2R,6S)-6-{[(4-chlorophenyl)sulfanyl]methyl}morpholin-2-yl]ethyl}phenyl)amino]-1-oxo-3-phenyl-3-(quinolin-4-yl)propan-2-yl]carbamate] | 0.03 nM
7 | COC(=O)N[C@H](C(=O)Nc1ccccc1CC[C@@H]1CNC[C@@H](COc2ccc3c(c2)NCCC3)O1)C(c1ccccc1)c1ccccc1 [Example 53, methyl [(2S)-1-oxo-3,3-diphenyl-1-{[2-(2-{(2R,6S)-6-[(1,2,3,4-tetrahydroquinolin-7-yloxy)methyl]morpholin-2-yl}ethyl)phenyl]amino}propan-2-yl]carbamate] | 13 nM
8 | COC(=O)N[C@H](C(=O)Nc1ccccc1CC[C@@H]1CNC[C@@H](COc2ccc3cn[nH]c3c2)O1)C(c1ccccc1)c1ccccc1 [Example 45, N-[2-(2-{(2R,6S)-6-[(1H-indazol-6-yloxy)methyl]morpholin-2-yl}ethyl)phenyl]-Nα-(methoxycarbonyl)-β-phenyl-L-phenylalaninamide] | 11 nM
9 | COC(=O)N[C@H](C(=O)Nc1ncccc1CC[C@@H]1CNC[C@@H](COc2ccc(C#N)cc2)O1)C(c1ccccc1)c1ccccc1 [Example 85, N-[3-(2-{(2R,6S)-6-[(4-cyanophenoxy)methyl]morpholin-2-yl}ethyl)pyridin-2-yl]-Nα-(methoxycarbonyl)-β-phenyl-L-phenylalaninamide] | 88 nM
10 | COC(=O)N[C@H](C(=O)Nc1ccccc1CC[C@@H]1CNC[C@@H](CSc2cccc(Cl)c2)O1)C(c1ccccc1)c1ccccc1 [Example 18, methyl N-[(1S)-1-benzhydryl-2-[[2-[2-[(2R,6S)-6-[(3-chlorophenyl)sulfanylmethyl]morpholin-2-yl]ethyl]phenyl]amino]-2-oxo-ethyl]carbamate] | 1.9 nM
11 | COC(=O)N[C@H](C(=O)Nc1ccccc1CC[C@@H]1CNC[C@@H](COc2ccccc2F)O1)C(c1ccccc1)c1ccccc1 [Example 49, N-[2-(2-{(2R,6S)-6-[(2-fluorophenoxy)methyl]morpholin-2-yl}ethyl)phenyl]-Nα-(methoxycarbonyl)-β-phenyl-L-phenylalaninamide] | 14 nM
12 | COC(=O)N[C@H](C(=O)Nc1ccccc1CCC1CNC[C@@H](COc2ccc(Cl)cc2)O1)C(c1ccccc1)c1ccccc1 (stereo partly drawn) [Example 5, methyl N-[(1S)-1-benzhydryl-2-[[2-[2-[(6S)-6-[(4-chlorophenoxy)methyl]morpholin-2-yl]ethyl]phenyl]amino]-2-oxo-ethyl]carbamate] | 58 nM
13 | COC(=O)N[C@H](C(=O)Nc1ccccc1CC[C@@H]1CNC[C@@H](COc2cccc3cc[nH]c23)O1)C(c1ccccc1)c1ccccc1 [Example 38, N-[2-(2-{(2R,6S)-6-[(1H-indol-7-yloxy)methyl]morpholin-2-yl}ethyl)phenyl]-Na-(methoxycarbonyl)-b-phenyl-L-phenylalaninamide] | 240 nM
14 | COC(=O)N[C@H](C(=O)Nc1ccccc1CC[C@@H]1CNC[C@@H](COc2cccc3c2CCC3)O1)C(c1ccccc1)c1ccccc1 [Example 31, methyl N-[(1S)-1-benzhydryl-2-[[2-[2-[(2R,6S)-6-(indan-4-yloxymethyl)morpholin-2-yl]ethyl]phenyl]amino]-2-oxo-ethyl]carbamate] | 36 nM
15 | COC(=O)N[C@H](C(=O)Nc1ccccc1CC[C@@H]1CNC[C@@H](CSc2ncccc2Cl)O1)C(c1ccccc1)c1ccccc1 [Example 54, N-(2-{2-[(2R,6S)-6-{[(3-chloropyridin-2-yl)sulfanyl]methyl}morpholin-2-yl]ethyl}phenyl)-Nα-(methoxycarbonyl)-β-phenyl-L-phenylalaninamide] | 0.93 nM
16 | N[C@H](C(=O)Nc1cncc(F)c1CC[C@@H]1CNC[C@@H](COC(=O)NCCc2ccccc2)O1)C(c1ccc(F)cc1)c1ccc(F)cc1 [Example 130, 4-fluoro-β-(4-fluorophenyl)-N-(5-fluoro-4-{2-[(2R,6S)-6-({[(2-phenylethyl)carbamoyl]oxy}methyl)morpholin-2-yl]ethyl}pyridin-3-yl)-L-phenylalaninamide] | 8.8 nM
17 | COC(=O)N[C@H](C(=O)Nn1c(CC[C@@H]2CNC[C@@H](COc3ccc(C#N)cc3)O2)cccc1=O)C(c1ccccc1)c1ccccc1 [Example 90, N-[6-(2-{(2R,6S)-6-[(4-cyanophenoxy)methyl]morpholin-2-yl}ethyl)-2-oxopyridin-1 (2H)-yl]-Nα-(methoxycarbonyl)-β-phenyl-L-phenylalaninamide] | 53.3 nM
18 | COC(=O)N[C@H](C(=O)Nc1ccccc1CC[C@@H]1CNC[C@@H](CCc2ccc(C#N)cc2)O1)C(c1ccccc1)c1ccccc1 [Example 63, N-[2-(2-{(2R,6R)-6-[2-(4-cyanophenyl)ethyl]morpholin-2-yl}ethyl)phenyl]-N-α-(methoxycarbonyl)-β-phenyl-L-phenylalaninamide] | 8.8 nM
19 | COC(=O)N[C@H](C(=O)Nc1ccccc1CC[C@@H]1CNC[C@@H](COc2cccc3ncccc23)O1)C(c1ccccc1)c1ccccc1 [Example 51, methyl [(2S)-1-oxo-3,3-diphenyl-1-{[2-[2-{(2R,6S)-6-[(quinolin-5-yloxy)methyl]morpholin-2-yl}ethyl)phenyl]amino}propan-2-yl]carbamate] | 14 nM
